Data taken from US20220111378A1, “METHODS AND SYSTEMS FOR DETERMINING TARGET SENSITIVITY TO A THERAPEUTIC FORMULA” (priority 2019, published 2022).

Columns and labels:
[1] = system: sterile urine sample spiked with clinical isolate EcUAH202; details: EcUAH202 spiked into sterile urine; breakpoint concentrations; confirmed for ampicillin within approximately 5 minutes
Experimental: To prepare a spiked bacterial sample, 1 mL of an overnight culture was diluted into 25 mL of warm cation-adjusted Mueller Hinton broth, allowed to grow to log phase at 37 C in a shaking incubator, and counted using a hemocytometer. […] A 2-mL aliquot of the bacterial solution was added to a disposable 1-cm cuvette containing a pre-dispensed volume of water, diluent and antibiotic according to the experiment at hand. The fluids were mixed by pipetting. A no-antibiotic control was used in each experiment, which contained only the appropriate volume of water and diluent. A set of three cuvettes, such as in 41 or 43a, 43b or 43c, containing identical mixtures were assembled side-to-side into a three-centimeter light path and inserted into the prototype sensitivity module shown in FIGS. 2A and 2B. A total of four sets of cuvettes could be examined in the prototype at one time. The prototype maintains the cultures at 37 C with gentle agitation to mitigate the effects of bacterial settling. Optical transmissions through each set of cuvettes were taken every 5 seconds for the no-antibiotic control and the experimental cuvettes. The bacteria were allowed to grow from 10 minutes to two hours depending on the antibiotics and/or bacteria being tested. The final curves were analyzed to determine whether the bacteria were sensitive or resistant to each drug or drug combination. […]

K. pneumoniae KpH201 = details: clinical isolate KpH201; breakpoint concentrations; confirmed by growth curves vs no-antibiotic control within approximately 20 minutes
Experimental: To prepare a spiked bacterial sample, 1 mL of an overnight culture was diluted into 25 mL of warm cation-adjusted Mueller Hinton broth, allowed to grow to log phase at 37 C in a shaking incubator, and counted using a hemocytometer. The bacteria were then diluted in additional warm broth to a final concentration of 1E5 to 8E5 CFU/mL. A 2-mL aliquot of the bacterial solution was added to a disposable 1-cm cuvette containing a pre-dispensed volume of water, diluent and antibiotic according to the experiment at hand. The fluids were mixed by pipetting. A no-antibiotic control was used in each experiment, which contained only the appropriate volume of water and diluent. A set of three cuvettes, such as in 41 or 43a, 43b or 43c, containing identical mixtures were assembled side-to-side into a three-centimeter light path and inserted into the prototype sensitivity module shown in FIGS. 2A and 2B. A total of four sets of cuvettes could be examined in the prototype at one time. The prototype maintains the cultures at 37 C with gentle agitation to mitigate the effects of bacterial settling. Optical transmissions through each set of cuvettes were taken every 5 seconds for the no-antibiotic control and the experimental cuvettes. […] The final curves were analyzed to determine whether the bacteria were sensitive or resistant to each drug or drug combination. […]

[2] = system: Staphylococcus aureus SaR100; assay: Growth curves at breakpoint concentrations compared with culture results (optical AST); format: cell-based; details: clinical isolate SaR100, confirmed by growth curves within approximately 42 minutes
Experimental: (§1) To prepare a spiked bacterial sample, 1 mL of an overnight culture was diluted into 25 mL of warm cation-adjusted Mueller Hinton broth, allowed to grow to log phase at 37 C in a shaking incubator, and counted using a hemocytometer. The bacteria were then diluted in additional warm broth to a final concentration of 1E5 to 8E5 CFU/mL. A 2-mL aliquot of the bacterial solution was added to a disposable 1-cm cuvette containing a pre-dispensed volume of water, diluent and antibiotic according to the experiment at hand. The fluids were mixed by pipetting. A no-antibiotic control was used in each experiment, which contained only the appropriate volume of water and diluent. A set of three cuvettes, such as in 41 or 43a, 43b or 43c, containing identical mixtures were assembled side-to-side into a three-centimeter light path and inserted into the prototype sensitivity module shown in FIGS. 2A and 2B. A total of four sets of cuvettes could be examined in the prototype at one time. The prototype maintains the cultures at 37 C with gentle agitation to mitigate the effects of bacterial settling. Optical transmissions through each set of cuvettes were taken every 5 seconds for the no-antibiotic control and the experimental cuvettes. The bacteria were allowed to grow from 10 minutes to two hours depending on the antibiotics and/or bacteria being tested. The final curves were analyzed to determine whether the bacteria were sensitive or resistant to each drug or drug combination.
(§2) In the proof-of-concept device used to generate the data provided in this example, a 3-cm light path and lasers at 405 nm and 532 nm were used. Antimicrobial resistance profiles of 17 clinical isolates of 11 uropathogens were followed from 20 minutes to three hours, against 8 antibiotics, both lytic and static.

[3] = system: Escherichia coli EcUAH202; assay: as above; format: cell-based; details: clinical isolate EcUAH202, confirmed for ampicillin and levofloxacin within approximately 7 minutes
Experimental: as §1, §2

[4] = system: Enterococcus faecalis EfR100; assay: as above; format: cell-based; details: clinical isolate EfR100, confirmed by growth curves within approximately 33 minutes
Experimental: as §1, §2

[5] = system: Pseudomonas aeruginosa PaH201; assay: as above; format: cell-based; details: clinical isolate PaH201, confirmed for ampicillin and ciprofloxacin within approximately 42 minutes
Experimental: as §1, §2

[6] = system: Candida tropicalis CanTCDC345; assay: as above; format: cell-based; details: clinical isolate CanTCDC345, confirmed for caspofungin within approximately 12 minutes
Experimental: as §1, §2

For `CC1(C)S[C@@H]2[C@H](NC(=O)[C@H](N)c3ccccc3)C(=O)N2[C@H]1C(=O)O` [ampicillin], the “Culture results: sensitivity or resistance of the strain” value (“Culture results” for short) [1] was “resistance”, the “Culture results” value (K. pneumoniae KpH201) was “sensitivity” and the “Culture results” value [2] was “sensitivity”. For the same compound, the “Culture results” value [3] was “resistance”, the “Culture results” value [4] was “sensitivity” and the “Culture results” value [5] was “resistance”.
In the case of `CC[C@H](C)C[C@H](C)CCCCCCCCC(=O)N[C@H]1C[C@@H](O)[C@@H](NCCN)NC(=O)[C@@H]2[C@@H](O)CCN2C(=O)[C@H]([C@H](O)CCN)NC(=O)[C@H]([C@H](O)[C@@H](O)c2ccc(O)cc2)NC(=O)[C@@H]2C[C@@H](O)CN2C(=O)[C@H]([C@@H](C)O)NC1=O` [caspofungin], the “Culture results” value [6] is reported as “sensitivity”.
